Experimental data taken from PMC12073248, “Tyrosinase Inhibitors Among Flora of Lubelskie Region—Application of Bio-Chromatographic Approach and Zebrafish Model in Bioactivity Screening of Plant Material” (Molecules, 2025).

Assays:
mushroom tyrosinase [1] = molecular target: T1, mushroom tyrosinase (Agaricus bisporus, UniProt C7FF04); test: Bio-chromatographic assay: HPLC-ESI-QTOF-MS/MS of extract with and without tyrosinase; assay type: binding; conditions: chemometric comparison, p < 0.001
mushroom tyrosinase [2] = molecular target: T1, mushroom tyrosinase; test: as above; assay type: binding; conditions: for Peak in subtracted chromatogram (extract with enzyme minus extract): negative ion mode, negative peak = decrease in intensity on reaction with the enzyme; for Peak height after reaction with tyrosinase: mass chromatograms with and without enzyme; for Inhibitory properties in the bio-chromatographic assay: aglycons in M. recutita extract, minute content, matrix effect
Description: For the identification of single components responsible for interactions with tyrosinase enzymes, a bio-chromatographic assay was performed. For this purpose, two 0.5 mL portions of 1 mg/mL 50% EtOH extract of chamomile dissolved in water each were transferred to an Eppendorf vial of 2 mL. The sample coded as sample A was mixed with 0.5 mL of carbonate buffer prepared by dissolving 120 mg Na2CO3 and 12.5 mg NaHCO3 in 1000 mL of water and later diluted 40 times, whereas sample B was mixed with 0.5 mL of tyrosinase enzyme (500 U/mL) in the same carbonate buffer and diluted 40 times as sample A was.
Both samples A and B were filtered through nylon syringe filters (0.1 µm pore size) into autosampler vials and analyzed using an HPLC-ESI-QTOF-MS/MS instrument. The test was performed in triplicate. During the analysis of recorded data, the obtained chromatograms were subtracted from each other in the Mass Hunter Workstation Program to highlight the changes visible under the influence of the enzyme, and some of the potentially active components were tentatively identified thanks to high-resolution mass measurement, recorded MS/MS fragmentation patterns, and comparison with open mass databases (Metlin, HMDB, Mass Bank). Both injections—with and without the enzyme—were also compared using the Mass Profiler Professional Program (Agilent Technologies, Santa Clara, CA, USA). For this purpose, molecular feature extraction was carried out using the Profinder program v. 10.0.02 (Agilent Technologies, Santa Clara, CA, USA) to obtain a list of m/z values, retention times, and peak areas from the recorded injections, which were exported in profinder archive and detailed CSV formats for subsequent chemometric comparison. The data were filtered based on criteria including a mass tolerance of 10 ppm, retention time variation of 0.3 min, and a minimum peak area of 1% of the highest signal. The chemometric analysis performed directly within the program yielded 802 entities in positive ion mode and 715 in negative ion mode (p < 0.05), in a one-way ANOVA test with asymptotic p-value computation and Benjamini–Hochberg multiple testing correction.

mushroom tyrosinase [3] = molecular target: T1, mushroom tyrosinase; test: Spectrophotometric tyrosinase inhibition assay with L-DOPA as substrate; assay type: biochemical; conditions: standards 0.015 to 5.0 mg/mL
Description: The inhibitory properties of the extracts against tyrosinase were evaluated using in an in vitro assay with the mushroom tyrosinase enzyme and L-DOPA as a substrate (Sigma Aldrich, St. Louis, MO, USA). The assay was performed based on the method by Uchida and colleagues [43]. Briefly, 100 µL of 100 mM phosphate buffer (pH 6.8) and 20 µL of the diluted extracts of studied plants (1 mg/mL solution in DMSO) were pipetted into a 96 well microwell. Afterwards, 20 μL of the mushroom tyrosinase (500 U/mL) dissolved in phosphate buffer (pH 6.8) was added to each microwell and the mixture was pre-incubated for 10 min at room temperature. After incubation, 80 µL of 8 mM L-DOPA was added and the reaction was initiated and sustained at 25 °C. After 20 min, the absorbance was measured at 450 nm using a microplate reader Promega GloMax Explorer GM 3510 (Madison, MO, USA). The control sample (with 100% tyrosinase activity) contained the appropriate volume of the solvent (100 µL buffer plus 20 µL DMSO) instead of the extract. In both assays, the dopachrome formation was measured spectrophotometrically at λ = 450 nm, using a Promega microplate reader. The obtained values were corrected by the absorbance value of the background that was measured for the extracts without the mushroom tyrosinase and L-DOPA. Each sample was analyzed in three independent repetitions. […]

T1 sequence (C7FF04 1-392): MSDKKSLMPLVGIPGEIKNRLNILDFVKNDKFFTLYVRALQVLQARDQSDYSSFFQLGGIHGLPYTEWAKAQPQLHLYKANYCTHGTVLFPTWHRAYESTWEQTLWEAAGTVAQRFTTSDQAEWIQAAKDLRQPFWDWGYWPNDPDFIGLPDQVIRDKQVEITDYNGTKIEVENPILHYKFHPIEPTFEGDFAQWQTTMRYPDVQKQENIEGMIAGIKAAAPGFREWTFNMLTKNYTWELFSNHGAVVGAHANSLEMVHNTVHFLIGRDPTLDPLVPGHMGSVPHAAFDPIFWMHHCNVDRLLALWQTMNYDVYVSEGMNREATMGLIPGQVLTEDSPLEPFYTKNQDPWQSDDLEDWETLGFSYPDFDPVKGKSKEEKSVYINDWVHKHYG

| Molecule | Presence among m/z features differentiating extract before and after tyrosinase treatment (mushroom tyrosinase [1]) | Peak in subtracted chromatogram (extract with enzyme minus extract) (mushroom tyrosinase [2]) | also measured |
| --- | --- | --- | --- |
| Isopropylmalic acid | present on the list of the differentiating molecular features | – | – |
| O=C(O)CC(OC(=O)/C=C/c1ccc(O)c(O)c1)C(=O)O (centres unmarked) [caffeoylmalic acid, Caffeoylmalic acid] | present on the list of the differentiating molecular features | – | – |
| O=C(/C=C/c1ccc(O)cc1)O[C@@H](C(=O)O)[C@@H](O)C(=O)O [coumaroyl-tartaric acid, p-Coumaroyltartaric acid] | present on the list of the differentiating molecular features | – | – |
| Feruloyl hexose | – | Large negative peaks | – |
| O=C(O)CC(O)C(=O)O (centres unmarked) [malic acid, Malic acid] | – | Large negative peaks | – |
| O=C(O)CC(=O)OC[C@H]1O[C@@H](Oc2c(-c3ccc(O)cc3)oc3cc(O)cc(O)c3c2=O)[C@H](O)[C@@H](O)[C@@H]1O [kaempferol malonylglucoside, Kaempferol 3-(6″-malonylglucoside)] | – | – | Peak height after reaction with tyrosinase (mushroom tyrosinase [2]): marked decrease in the peak height |
| O=C(O)[C@]1(O)C[C@@H](O)[C@@H](O)[C@H](O)C1 [quinic acid, Quinic acid] | present on the list of the differentiating molecular features | – | – |
| O=c1cc(-c2ccc(O)cc2)oc2cc(O)cc(O)c12 [apigenin, Apigenin] | – | – | Inhibitory properties in the bio-chromatographic assay (mushroom tyrosinase [2]): did not show inhibitory properties |
| COc1cc(/C=C/C(=O)O)cc(OC)c1O [sinapic acid, Sinapic acid] | present on the list of the differentiating molecular features | – | – |
| Protocatechuoylglucose [protocatechuoyl-glucose] | – | visible negative peak | – |
| O=C(O)CC(O)(CC(=O)O)C(=O)O [citric acid, Citric acid] | – | Large negative peaks | – |
| O=c1c(O[C@@H]2OC[C@H](O)[C@H](O)[C@H]2O)c(-c2ccc(O)cc2)oc2cc(O)cc(O)c12 [kaempferol arabinoside, Kaempferol-3-O-alpha-L-arabinoside] | – | – | Peak height after reaction with tyrosinase (mushroom tyrosinase [2]): marked decrease in the peak height |
| COc1cc(/C=C/C(=O)O)ccc1O [ferulic acid, Ferulic acid] | – | – | IC50 (mushroom tyrosinase [3]): 484 nM |
| Syringetin glucoside | visible in the list of differentiating signals | – | – |
| O=c1cc(-c2ccc(O)c(O)c2)oc2cc(O)cc(O)c12 [luteolin, Luteolin] | – | – | Inhibitory properties in the bio-chromatographic assay (mushroom tyrosinase [2]): did not show inhibitory properties |
| Feruloyl-glucose isomers | – | leading negative peak | – |
| O=C(O)[C@H](O)[C@@H](O)[C@H](O)[C@H](O)CO [gluconic acid, Gluconic acid] | – | Large negative peaks | – |
